# Test results as given in ChEMBL document CHEMBL3585313, “Fragment-Based Discovery of a Small Molecule Inhibitor of Bruton's Tyrosine Kinase” (J Med Chem, 2015).
# Assays:
# [1] = Clearance in Sprague-Dawley rat at 1 mg/kg, iv; assay type: ADME, organism-based; settings: in vivo
# [2] = Volume of distribution at steady state in Sprague-Dawley rat at 1 mg/kg, iv and 4 mg/kg, po; assay type: ADME, organism-based; settings: in vivo, read-out: Vdss
# [3] = Half life in Sprague-Dawley rat at 1 mg/kg, iv and 4 mg/kg, po; assay type: ADME, organism-based; settings: in vivo
# [4] = Oral bioavailability in Sprague-Dawley rat at 4 mg/kg; assay type: ADME, organism-based; settings: in vivo
# Activin receptor type-1 = Activin receptor type-1 (Homo sapiens, UniProt Q04771); experiment: Inhibition of human recombinant ALK2 by LanthaScreen Binding assay
# Activin receptor type-1, sequence (Q04771 whole entry, the tested form may be a part): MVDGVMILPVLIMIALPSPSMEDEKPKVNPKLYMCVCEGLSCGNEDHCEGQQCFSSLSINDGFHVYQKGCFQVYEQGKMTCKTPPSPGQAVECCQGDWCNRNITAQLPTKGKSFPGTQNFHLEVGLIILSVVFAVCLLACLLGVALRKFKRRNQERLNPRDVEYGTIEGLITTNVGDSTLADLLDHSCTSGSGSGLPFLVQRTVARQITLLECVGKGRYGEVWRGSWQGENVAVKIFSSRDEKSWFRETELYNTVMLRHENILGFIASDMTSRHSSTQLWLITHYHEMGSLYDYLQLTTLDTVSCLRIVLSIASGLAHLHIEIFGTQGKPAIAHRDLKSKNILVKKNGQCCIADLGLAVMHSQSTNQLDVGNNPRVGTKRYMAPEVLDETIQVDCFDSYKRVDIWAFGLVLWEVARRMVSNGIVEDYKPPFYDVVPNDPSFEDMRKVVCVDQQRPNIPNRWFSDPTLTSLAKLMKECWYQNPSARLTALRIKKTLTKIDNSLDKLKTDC
# LIM domain kinase 1 = LIM domain kinase 1 (Homo sapiens, UniProt P53667); experiment: Inhibition of human recombinant LIMK1 by LanthaScreen Binding assay
# Activated CDC42 kinase 1 = Activated CDC42 kinase 1 (Homo sapiens, UniProt Q07912); experiment: Inhibition of human recombinant TNK2 by LanthaScreen Binding assay
# Rattus norvegicus [5] = experiment: Antiarthritic activity in po dosed bovine type-2 collagen-induced po dosed female Lewis rat arthritic model assessed as inhibition of paw volume administered as qd starting on day 12 continued through day 21; assay type: functional, organism-based
# Rattus norvegicus [6] = experiment: Antiarthritic activity in po dosed bovine type-2 collagen-induced po dosed female Lewis rat arthritic model assessed as increase in paw volume AUC (0 to 24 hrs) administered as qd starting on day 12 continued through day 21; assay type: functional, organism-based
# [7] = Clearance in C57/bl6 mouse at 1 mg/kg, iv and 10 mg/kg, po; assay type: ADME, organism-based; settings: in vivo
# [8] = Volume of distribution at steady state in C57/bl6 mouse at 1 mg/kg, iv and 10 mg/kg, po; assay type: ADME, organism-based; settings: in vivo, read-out: Vdss
# [9] = Half life in C57/bl6 mouse at 1 mg/kg, iv and 10 mg/kg, po; assay type: ADME, organism-based; settings: in vivo
# [10] = Oral bioavailability in C57/bl6 mouse at 10 mg/kg; assay type: ADME, organism-based; settings: in vivo
# [11] = Clearance in beagle dog at 1 mg/kg, iv and 10 mg/kg, po; assay type: ADME, organism-based, Canis lupus familiaris; settings: in vivo
# [12] = Volume of distribution at steady state in beagle dog at 1 mg/kg, iv and 10 mg/kg, po; assay type: ADME, organism-based, Canis lupus familiaris; settings: in vivo, read-out: Vdss
# [13] = Half life in beagle dog at 1 mg/kg, iv and 10 mg/kg, po; assay type: ADME, organism-based, Canis lupus familiaris; settings: in vivo
# [14] = Oral bioavailability in beagle dog at 10 mg/kg; assay type: ADME, organism-based, Canis lupus familiaris; settings: in vivo
# [15] = target: T1, Tyrosine-protein kinase Blk (Homo sapiens, UniProt P51451); experiment: Inhibition of human recombinant Blk at 1 uM
# [16] = target: Cytoplasmic tyrosine-protein kinase BMX (Homo sapiens) (UniProt P51813); experiment: Inhibition of human recombinant Bmx at 1 uM
# [17] = target: Tyrosine-protein kinase Tec (Homo sapiens) (UniProt P42680); experiment: Inhibition of human recombinant Tec at 1 uM
# [18] = target: T2, Tyrosine-protein kinase Fgr (Homo sapiens, UniProt P09769); experiment: Inhibition of human recombinant Fgr at 1 uM
# [19] = target: T3, Tyrosine-protein kinase FRK (Homo sapiens, UniProt P42685); experiment: Inhibition of human recombinant Frk at 1 uM
# T3 sequence (P42685 whole entry): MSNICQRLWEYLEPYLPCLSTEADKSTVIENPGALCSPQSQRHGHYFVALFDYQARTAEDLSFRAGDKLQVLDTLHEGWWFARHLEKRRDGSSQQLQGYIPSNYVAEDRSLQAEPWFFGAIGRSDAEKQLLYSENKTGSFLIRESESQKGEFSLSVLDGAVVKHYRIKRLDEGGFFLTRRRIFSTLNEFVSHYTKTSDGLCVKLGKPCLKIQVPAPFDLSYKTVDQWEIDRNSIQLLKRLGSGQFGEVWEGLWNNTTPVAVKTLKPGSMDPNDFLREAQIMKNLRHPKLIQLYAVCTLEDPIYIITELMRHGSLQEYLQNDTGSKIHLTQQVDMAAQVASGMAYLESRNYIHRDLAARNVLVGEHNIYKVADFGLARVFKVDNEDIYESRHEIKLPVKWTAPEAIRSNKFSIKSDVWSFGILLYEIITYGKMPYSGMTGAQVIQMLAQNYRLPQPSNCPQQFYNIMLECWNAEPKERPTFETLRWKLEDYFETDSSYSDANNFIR
# [20] = target: Tyrosine-protein kinase Fyn (Homo sapiens) (UniProt P06241); experiment: Inhibition of human recombinant Fyn at 1 uM
# Tyrosine-protein kinase Fyn (Homo sapiens), sequence (P06241 2-537 limits assumed): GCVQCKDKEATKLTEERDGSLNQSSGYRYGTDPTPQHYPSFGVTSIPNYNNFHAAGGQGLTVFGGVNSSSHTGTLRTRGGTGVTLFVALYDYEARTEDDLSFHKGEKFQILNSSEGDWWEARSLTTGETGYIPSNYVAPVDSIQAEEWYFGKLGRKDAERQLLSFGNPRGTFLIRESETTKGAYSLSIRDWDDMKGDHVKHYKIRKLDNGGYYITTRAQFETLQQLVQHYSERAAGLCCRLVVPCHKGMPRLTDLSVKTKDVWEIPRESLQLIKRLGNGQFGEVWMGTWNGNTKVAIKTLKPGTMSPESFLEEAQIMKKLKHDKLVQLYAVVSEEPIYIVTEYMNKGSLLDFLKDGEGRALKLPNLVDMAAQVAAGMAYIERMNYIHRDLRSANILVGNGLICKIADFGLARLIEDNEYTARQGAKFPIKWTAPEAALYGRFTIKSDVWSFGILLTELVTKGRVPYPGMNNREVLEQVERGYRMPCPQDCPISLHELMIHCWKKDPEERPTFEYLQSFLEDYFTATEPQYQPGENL
# [21] = target: T4, Tyrosine-protein kinase HCK (Homo sapiens, UniProt P08631); experiment: Inhibition of human recombinant Hck at 1 uM
# [22] = target: T5, Proto-oncogene tyrosine-protein kinase Src (Homo sapiens, UniProt P12931); experiment: Inhibition of human recombinant Src at 1 uM
# T5 sequence (P12931 2-536 limits assumed): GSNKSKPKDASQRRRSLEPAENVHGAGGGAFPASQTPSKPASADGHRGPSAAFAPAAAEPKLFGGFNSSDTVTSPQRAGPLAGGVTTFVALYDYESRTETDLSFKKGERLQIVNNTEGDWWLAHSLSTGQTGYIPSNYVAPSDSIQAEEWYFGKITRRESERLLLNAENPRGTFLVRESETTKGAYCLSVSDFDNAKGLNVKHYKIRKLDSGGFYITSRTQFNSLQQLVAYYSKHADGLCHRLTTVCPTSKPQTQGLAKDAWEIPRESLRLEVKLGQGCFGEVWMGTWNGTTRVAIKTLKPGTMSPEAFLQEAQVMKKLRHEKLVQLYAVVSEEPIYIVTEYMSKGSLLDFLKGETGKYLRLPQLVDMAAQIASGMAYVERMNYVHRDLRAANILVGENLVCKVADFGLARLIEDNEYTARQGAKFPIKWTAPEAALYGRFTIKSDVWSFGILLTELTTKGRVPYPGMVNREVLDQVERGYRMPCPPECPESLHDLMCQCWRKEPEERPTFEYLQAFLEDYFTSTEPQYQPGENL
# [23] = target: Tyrosine-protein kinase Yes (Homo sapiens) (UniProt P07947); experiment: Inhibition of human recombinant Yes at 1 uM
# [24] = target: T1, Tyrosine-protein kinase Blk; experiment: Inhibition of human recombinant Blk
# [25] = target: Cytoplasmic tyrosine-protein kinase BMX (Homo sapiens, UniProt P51813); experiment: Inhibition of human recombinant Bmx
# [26] = target: Tyrosine-protein kinase Tec (Homo sapiens, UniProt P42680); experiment: Inhibition of human recombinant Tec
# [27] = target: T2, Tyrosine-protein kinase Fgr; experiment: Inhibition of human recombinant Fgr
# Target sequence in this assay (P09769 whole entry): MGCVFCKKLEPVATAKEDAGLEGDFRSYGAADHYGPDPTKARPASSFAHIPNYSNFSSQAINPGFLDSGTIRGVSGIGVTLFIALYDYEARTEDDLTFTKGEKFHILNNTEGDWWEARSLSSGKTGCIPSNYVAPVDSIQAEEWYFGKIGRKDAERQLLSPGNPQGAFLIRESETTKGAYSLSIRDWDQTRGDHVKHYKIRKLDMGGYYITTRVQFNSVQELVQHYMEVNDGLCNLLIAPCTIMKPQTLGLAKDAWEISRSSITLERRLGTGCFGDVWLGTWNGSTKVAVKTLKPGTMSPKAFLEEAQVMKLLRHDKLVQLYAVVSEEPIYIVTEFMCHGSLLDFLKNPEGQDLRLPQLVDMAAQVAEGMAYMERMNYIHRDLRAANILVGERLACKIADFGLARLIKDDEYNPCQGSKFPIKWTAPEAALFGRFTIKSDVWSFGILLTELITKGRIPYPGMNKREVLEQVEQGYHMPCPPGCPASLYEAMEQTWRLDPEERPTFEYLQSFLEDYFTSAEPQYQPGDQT
# [28] = target: T3, Tyrosine-protein kinase FRK; experiment: Inhibition of human recombinant Frk
# [29] = target: T4, Tyrosine-protein kinase HCK; experiment: Inhibition of human recombinant Hck
# [30] = target: T6, Tyrosine-protein kinase Lyn (Homo sapiens, UniProt P07948); experiment: Inhibition of human recombinant LynA
# Target sequence in this assay (P07948 whole entry): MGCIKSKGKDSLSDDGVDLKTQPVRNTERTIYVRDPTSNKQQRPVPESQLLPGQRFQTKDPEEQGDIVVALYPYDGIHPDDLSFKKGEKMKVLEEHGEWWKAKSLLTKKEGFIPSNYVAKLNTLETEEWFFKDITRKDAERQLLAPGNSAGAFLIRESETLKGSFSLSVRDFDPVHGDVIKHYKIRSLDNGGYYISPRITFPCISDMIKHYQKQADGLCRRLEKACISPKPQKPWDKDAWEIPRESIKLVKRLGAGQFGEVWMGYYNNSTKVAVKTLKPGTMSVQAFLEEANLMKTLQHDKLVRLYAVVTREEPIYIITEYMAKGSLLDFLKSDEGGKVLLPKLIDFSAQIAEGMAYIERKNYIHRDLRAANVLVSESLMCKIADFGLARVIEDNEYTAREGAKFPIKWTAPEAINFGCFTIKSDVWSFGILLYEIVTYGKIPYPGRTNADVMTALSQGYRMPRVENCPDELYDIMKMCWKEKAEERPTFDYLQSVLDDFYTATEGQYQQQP
# [31] = target: T6, Tyrosine-protein kinase Lyn; experiment: Inhibition of human recombinant LynB
# Target sequence in this assay (P07948 whole entry): as above
# [32] = target: T5, Proto-oncogene tyrosine-protein kinase Src; experiment: Inhibition of human recombinant Src
# [33] = target: T6, Tyrosine-protein kinase Lyn; settings: 1 uM
# Target sequence in this assay (P07948 2-512 limits assumed): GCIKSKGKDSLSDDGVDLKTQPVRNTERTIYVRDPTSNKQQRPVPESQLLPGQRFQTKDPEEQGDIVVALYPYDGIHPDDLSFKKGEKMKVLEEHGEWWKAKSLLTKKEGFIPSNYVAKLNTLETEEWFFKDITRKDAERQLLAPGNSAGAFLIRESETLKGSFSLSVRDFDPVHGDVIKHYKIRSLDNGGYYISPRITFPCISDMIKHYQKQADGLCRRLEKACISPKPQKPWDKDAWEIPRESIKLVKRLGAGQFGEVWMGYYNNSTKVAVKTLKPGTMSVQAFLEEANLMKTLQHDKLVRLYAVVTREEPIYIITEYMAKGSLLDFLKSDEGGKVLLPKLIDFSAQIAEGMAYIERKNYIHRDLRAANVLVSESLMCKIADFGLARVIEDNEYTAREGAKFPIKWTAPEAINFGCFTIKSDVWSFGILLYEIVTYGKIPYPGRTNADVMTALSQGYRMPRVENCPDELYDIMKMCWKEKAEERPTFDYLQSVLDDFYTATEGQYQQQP
# Description: Inhibition of human recombinant LynA at 1 uM
# [34] = target: T6, Tyrosine-protein kinase Lyn; settings: 1 uM; remark: listed apart in the source
# Target sequence in this assay (P07948 2-512 limits assumed): as above
# Description: Inhibition of human recombinant LynB at 1 uM
# [35] = target: T7, Tyrosine-protein kinase BTK (Homo sapiens, UniProt Q06187); experiment: Inhibition of BTK autophosphorylation in human Raji cells after 30 mins by Phos-Y223 Btk HTRF assay; assay type: cell-based
# T7 sequence (Q06187 whole entry): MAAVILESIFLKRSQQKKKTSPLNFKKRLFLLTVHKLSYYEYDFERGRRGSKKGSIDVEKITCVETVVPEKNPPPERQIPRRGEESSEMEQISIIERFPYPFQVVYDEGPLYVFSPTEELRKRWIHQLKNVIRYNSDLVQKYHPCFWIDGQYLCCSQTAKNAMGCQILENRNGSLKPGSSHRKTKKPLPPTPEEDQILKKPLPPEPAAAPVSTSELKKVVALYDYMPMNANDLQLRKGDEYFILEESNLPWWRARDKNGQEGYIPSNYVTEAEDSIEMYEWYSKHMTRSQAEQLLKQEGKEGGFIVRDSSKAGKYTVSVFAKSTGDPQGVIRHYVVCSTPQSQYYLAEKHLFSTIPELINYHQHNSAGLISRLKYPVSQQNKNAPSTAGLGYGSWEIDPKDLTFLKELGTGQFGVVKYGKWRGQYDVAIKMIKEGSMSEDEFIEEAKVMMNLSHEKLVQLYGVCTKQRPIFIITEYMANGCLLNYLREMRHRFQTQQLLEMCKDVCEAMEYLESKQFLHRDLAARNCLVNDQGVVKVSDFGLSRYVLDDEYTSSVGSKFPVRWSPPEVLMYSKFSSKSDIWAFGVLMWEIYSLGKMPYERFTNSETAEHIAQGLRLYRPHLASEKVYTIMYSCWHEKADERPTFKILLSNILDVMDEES
# [36] = target: Tyrosine-protein kinase Lck (Homo sapiens, UniProt P06239); experiment: Inhibition of Lck (unknown origin)
# Tyrosine-protein kinase Lck, sequence (P06239 whole entry): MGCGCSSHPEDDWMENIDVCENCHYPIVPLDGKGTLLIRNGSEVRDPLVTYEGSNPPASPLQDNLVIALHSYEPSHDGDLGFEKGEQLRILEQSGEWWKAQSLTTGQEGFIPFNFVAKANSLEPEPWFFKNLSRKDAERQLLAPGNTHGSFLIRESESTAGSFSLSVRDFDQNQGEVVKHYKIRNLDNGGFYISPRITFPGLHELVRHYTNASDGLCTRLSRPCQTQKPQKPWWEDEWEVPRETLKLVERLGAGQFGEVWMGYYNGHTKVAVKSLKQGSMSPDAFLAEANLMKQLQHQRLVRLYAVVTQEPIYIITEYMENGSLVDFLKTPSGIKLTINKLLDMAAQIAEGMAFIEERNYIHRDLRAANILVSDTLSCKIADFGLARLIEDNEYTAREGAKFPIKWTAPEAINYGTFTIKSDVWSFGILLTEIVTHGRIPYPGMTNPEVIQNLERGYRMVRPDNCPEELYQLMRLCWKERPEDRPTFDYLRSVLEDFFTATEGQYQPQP
# [37] = Hepatic extraction ratio in human liver microsomes at 1 uM up to 30 mins by LC-MS/MS analysis; assay type: ADME; settings: read-out: ERH
# [38] = Hepatic extraction ratio in rat liver microsomes at 1 uM up to 30 mins by LC-MS/MS analysis; assay type: ADME; settings: read-out: ERH
# MDR1 = experiment: Apparent permeability across apical to basolateral side in pig LLC-PK1 cells expressing MDR1; assay type: ADME, cell-based, Sus scrofa
# LLC-PK1 = experiment: Efflux ratio of apparent permeability across apical to basolateral side over basolateral to apical side in pig LLC-PK1 cells expressing MDR1; assay type: ADME, cell-based, Sus scrofa
# [39] = Hepatic extraction ratio in Sprague-Dawley rat at 1 mg/kg, iv; assay type: ADME, organism-based; settings: in vivo, read-out: ERH
# [40] = target: T7, Tyrosine-protein kinase BTK
# Description: Inhibition of BTK in human Raji cells after 30 mins by HTRF assay
smiles,measurement,setting,value
Cc1cc2cn[nH]c2cc1-c1cccc2c(N)c(C(N)=O)nnc12,clearance,[1],12 mL/min/kg
same,Vd,[2],1.5 L/kg
same,half-life,[3],1.6 h
same,bioavailability,[4],70%
same,IC50,Activin receptor type-1,7 nM
same,IC50,LIM domain kinase 1,12 nM
same,IC50,Activated CDC42 kinase 1,11 nM
same,Activity,Rattus norvegicus [5],Dose-dependent effect
same,Activity,Rattus norvegicus [6],Dose-dependent effect
same,clearance,[7],18 mL/min/kg
same,Vd,[8],0.8 L/kg
same,half-life,[9],1.6 h
same,bioavailability,[10],93%
same,clearance,[11],8.7 mL/min/kg
same,Vd,[12],1.1 L/kg
same,half-life,[13],4.1 h
same,bioavailability,[14],89%
same,inhibition,[15],89%
same,inhibition,[16],91%
same,inhibition,[17],92%
same,inhibition,[18],94%
same,inhibition,[19],88%
same,inhibition,[20],53%
same,inhibition,[21],82%
same,inhibition,[22],87%
same,inhibition,[23],73%
same,IC50,[24],36 nM
same,IC50,[25],36 nM
same,IC50,[26],57 nM
same,IC50,[27],41 nM
same,IC50,[28],41 nM
same,IC50,[29],99 nM
same,IC50,[30],82 nM
same,IC50,[31],54 nM
same,IC50,[32],67 nM
same,inhibition,[33],82%
same,inhibition,[34],85%
Cn1cc(-c2cccc3c(N)c(C(N)=O)nnc23)cn1,EC50,[35],> 50000 nM
same,IC50,[36],13000 nM
same,"hepatic extraction ratio at 0.5 h, 1 µM",[37],0.77
same,"hepatic extraction ratio at 0.5 h, 1 µM",[38],0.5
same,Papp A→B,MDR1,28.8 ×10⁻⁶ cm/s
same,Ratio,LLC-PK1,0.7
same,clearance,[1],22 mL/min/kg
same,hepatic extraction ratio,[39],0.3
same,Vd,[2],0.7 L/kg
same,half-life,[3],1.3 h
same,bioavailability,[4],35%
same,IC50,[40],240000 nM
NC(=O)c1nnc2ccccc2c1N,IC50,[36],38000 nM
same,IC50,[40],3500 nM
NC(=O)c1nnc2c(-c3ccc4cn[nH]c4c3)cccc2c1N,IC50,[36],1300 nM
NC(=O)c1nnc2c(-c3ccc4cc[nH]c4c3)cccc2c1N,IC50,[36],6400 nM
